The nature of series [1]: LM-1 macrophage cytotoxicity (Alamar Blue). Type of series: cell-based, murine. To be noted: mouse. The protocol: The host cytotoxicity was evaluated by monitoring the survival rates of murine LM-1 macrophage at different concentrations of peptides 15–37 ([…]) over 24 h. […] Exceptionally, MeAla peptide amide 21 was 3.2- to 8-fold less toxic than the other peptide analogs.
The LM1- macrophages were grown in DMEM supplemented with 10% heat inactivated FBS. Cells at the concentration of 100,000 cells/mL were cultivated for 24 h in a 96-well plate (37 °C, 5% CO2). The culture medium was removed and fresh medium containing the appropriate drug and concentration was added to the cells, which were incubated for 24 h (37 °C, 5% CO2). Seven different concentrations were tested ([…]) as well as controls (without drugs). After 24 h, the culture medium was removed and replaced for fresh medium containing 10% Alamar Blue (Thermo Fisher Scientific, Waltham, MA, USA) and incubated for 2 h (37 °C, 5% CO2). Readings at 570 and 600 nm (Asys UVM340 Plate reader, Biochrom, Cambridge, UK) were taken and analyzed according to the manufacturer protocol. Survival rates at different drug concentrations and CC50 values were calculated using the Excel software.
In general terms: Alamar Blue is a resazurin reagent that responds to reducing activity.

For series [2], the system named is L. infantum AmB1000.1 (resistant to amphotericin B) promastigotes. Type of series: cell-based, Leishmania infantum. The settings on record: for EC50: strain resistant to 1 µM amphotericin B, promastigotes, 72 h, 25 °C, 95% CI in brackets (n = 3), read-out: Ldi AmB-Res EC50. The protocol:
(§1) The biological activity of peptides 15–37 was assessed against the L. infantum wild-type stain (WT), as well as mutants resistant to the common anti-leishmanial agents, such as antimony (Sb^III), amphotericin B (AmB) and miltefosine (MF): Sb2000.1, AmB1000.1 and MF200.5. Activity against Leishmania promastigotes was determined by monitoring the replication of parasites after 72 h of incubation at 25 °C in the presence of increasing concentrations of the different peptides […] and reported as EC50 values (Table 2). […] The greatest potencies were observed using analogs against the amphotericin B resistant strain (e.g., AmB1000.1).
(§2) The L. infantum (MHOM/MA/67/ITMAP-263) wild-type stain (WT), as well as the resistant mutants Sb2000.1, AmB1000.1 and MF200.5 [53, 54, 55, 56, 57, 58], resistant to antimony (Sb^III), amphotericin B (AmB) and miltefosine (MF), respectively, were grown in M199 medium at 25 °C supplemented with 10% fetal bovine serum, 5 μg/mL of haemin at pH 7.0 and 2000 μM Sb (Potassium antimonyl tartrate, Sigma-Aldrich), 200 μM of MF (Miltefosine, Cayman Chem., Ann Arbor, MI, USA) or 1 μM AmB (Amphotericin B solution, Sigma, Oakville, ON, Canada). Antileishmanial values were determined in Leishmania promastigotes by monitoring the replication of parasites after 72 h of incubation at 25 °C in the presence of increasing concentrations of the different peptides by measuring A600 using a Cytation 5 machine (BioTek, Winooski, VT, USA). EC50 values were calculated based on dose–response curves analyzed by non-linear regression with GraphPad Prism 8.4.3 software (GraphPad Software, La Jolla, CA, USA). An average of at least three independent biological replicates from independent cultures was performed for each determination.

Series [3] deals with L. infantum (MHOM/MA/67/ITMAP-263) wild-type strain (WT) promastigotes. Type of series: cell-based, Leishmania infantum. To be noted: for EC50: 72 h; for Selectivity Index: SI = CC50 (LM-1 macrophage)/EC50 Ldi WT. The protocol: as §1, §2
In series [4] the test system is L. infantum MF200.5 (resistant to miltefosine) promastigotes. Type of series: cell-based, Leishmania infantum. The settings on record: for EC50: strain resistant to 200 µM miltefosine, promastigotes, 72 h, 25 °C, 95% CI in brackets (n = 3), read-out: Ldi MF-Res EC50. The protocol:
as §1, §2

The subject of series [5] is L. infantum Sb2000.1 (resistant to antimony) promastigotes. Type of series: cell-based, Leishmania infantum. The settings on record: strain resistant to 2 mM antimonials, 72 h, 25 °C, 95% CI in brackets (n = 3), read-out: Ldi Sb-Res EC50. The protocol: as §1, §2
The mark [6] stands for this setting: promastigotes, 25 °C, 95% confidence interval in brackets (n = 3), read-out: Ldi WT EC50.
Where [7] appears, read: MHOM/MA/67/ITMAP-263) wild-type strain (WT) promastigotes.
The mark [8] stands for this setting: LM-1 macrophages, 24 h, Alamar Blue, read-out: CC50.

Values joined by “and” are separate entries in the source; they are usually repeats but may differ in a detail not shown here. Identical values can stand only once. Like-named read-outs stand apart in the source and are kept apart here. Where a SMILES comes first, the peptide text is derived from it. [ ]: non-standard residue; d: D form. The star is where a group is joined. NMeF = CN[C@@H](Cc1ccccc1)C(=O)O; NMeV = CN[C@H](C(=O)O)C(C)C; Hept6ynoyl = C#CCCCCC(=O)*; NMeA = CN[C@@H](C)C(=O)O; NH(CH2)6NH2 = NCCCCCCN*

For `C#CCCCCC(=O)Nn1c(C)cn([C@H](C(=O)N[C@H](C(=O)N[C@@H](C)C(=O)N[C@@H](Cc2ccccc2)C(=O)O)C(C)C)C(C)C)c1=O` [peptide 36, HCC(CH2)4CO-(5-Me)Nai-Val-Val-Ala-Phe-OH], in series [1], half-maximal cytotoxicity (CC50 at 24 h) was put at 436 µM. For the same molecule, the concentration for a half-maximal effect (EC50) in series [2], in series [3] (setting [6]), in series [4] and in series [5] was more than 300 µM throughout.

`C#CCCCCC(=O)N[C@H](C(=O)N[C@H]1CCN([C@H](C(=O)N[C@@H](C)C(=O)N[C@@H](Cc2ccccc2)C(=O)NCCCCCCN)C(C)C)C1=O)C(C)C` [peptide 30, HCC(CH2)4CO-Val-Agl-Val-Ala-Phe-NH(CH2)6NH2]: in series [1], the CC50 (as a rule, the concentration giving 50% cytotoxicity) at 24 h worked out at 407 µM. For the same molecule, the EC50 (usually the concentration at which the effect is half-maximal) in series [2] turned out to be 114 µM; in series [3] (setting [7]), 47.4 µM; in series [4] it was 129 µM; in series [5], 37.6 µM. In addition, the “Selectivity Index” value in series [3] came out at 8.6.

`C#CCCCCC(=O)N(C)[C@H](C(=O)N(C)[C@H](C(=O)N(C)[C@H](C(=O)N(C)[C@@H](C)C(=O)N(C)[C@@H](Cc1ccccc1)C(=O)O)C(C)C)C(C)C)C(C)C` [peptide 12, HCC(CH2)4CO-Val(Me)-Val(Me)-Val(Me)-Ala(Me)-Phe(Me)-OH] (Hept6ynoyl-[NMeV][NMeV][NMeV][NMeA][NMeF]-OH): the CC50 at 24 h in series [1] (setting [8]) amounted to 281 µM. Further, the EC50 in series [2] was found to be 79.6 µM; in series [3] (setting [6]), 68.3 µM; in series [4], 75.6 µM; in series [5], 70.7 µM. Besides, the “Selectivity Index” value in series [3] is recorded as 4.1.

For `C#CCCCCC(=O)N[C@H](C(=O)N[C@H](C(=O)N(C)[C@H](C(=O)N[C@@H](C)C(=O)N[C@@H](Cc1ccccc1)C(=O)NCCCCCCN)C(C)C)C(C)C)C(C)C` [peptide 20, HCC(CH2)4CO-Val-Val-Val(Me)-Ala-Phe-NH(CH2)6NH2] (Hept6ynoyl-VV[NMeV]AF-{NH(CH2)6NH2}), the CC50 at 24 h in series [1] worked out at 281 µM. The EC50 in series [2] was 57.2 µM; in series [3] (setting [7]), 53.9 µM; in series [4] it was 60.6 µM; in series [5], 40.2 µM. For the same molecule, the “Selectivity Index” value in series [3] was 5.2.

Molecule `C#CCCCCC(=O)N(C)[C@H](C(=O)N(C)[C@H]1CCN([C@H](C(=O)N(C)[C@@H](C)C(=O)N(C)[C@@H](Cc2ccccc2)C(=O)NCCCCCCN)C(C)C)C1=O)C(C)C` [peptide 34, HCC(CH2)4CO-Val(Me)-Agl(Me)-Val-Ala(Me)-Phe(Me)-NH(CH2)6NH2] came in with a CC50 at 24 h in series [1] of 398 µM. In addition, the EC50 in series [2] was found to be 24.8 µM; in series [3] (setting [7]), 33.2 µM; in series [4], 23.1 µM. Also, in series [3], the “Selectivity Index” value came to 12.0.

Take `C#CCCCCC(=O)N[C@H](C(=O)N[C@H](C(=O)N[C@H](C(=O)N(C)[C@@H](C)C(=O)N[C@@H](Cc1ccccc1)C(=O)NCCCCCCN)C(C)C)C(C)C)C(C)C` [peptide 21, HCC(CH2)4CO-Val-Val-Val-Ala(Me)-Phe-NH(CH2)6NH2] (Hept6ynoyl-VVV[NMeA]F-{NH(CH2)6NH2}): the midpoint of cytotoxicity in series [1], the CC50 at 24 h, lay at 1440 µM. The EC50 amounted to 65.7 µM in series [2], 75.8 µM in series [3] (setting [7]), 63.5 µM in series [4] and 79.8 µM in series [5]. The “Selectivity Index” value in series [3] is 19.1 and 18.9.

`C#CCCCCC(=O)N[C@H](C(=O)N[C@H](C(=O)N[C@H](C(=O)N[C@H]1CCN([C@@H](Cc2ccccc2)C(=O)NCCCCCCN)C1=O)C(C)C)C(C)C)C(C)C` [peptide 32, HCC(CH2)4CO-Val-Val-Val-Agl-Phe-NH(CH2)6NH2] returned a 50% cytotoxic concentration (CC50) at 24 h in series [1] of 389 µM. Moreover, the EC50 turned out to be 90.1 µM in series [2], 91.2 µM in series [3] (setting [7]), 84.2 µM in series [4] and 87.8 µM in series [5]. For the same molecule, the “Selectivity Index” value in series [3] stood at 4.3.

For the molecule `C#CCCCCC(=O)N(C)[C@H](C(=O)N(C)[C@H]1CCN([C@H](C(=O)N(C)[C@@H](C)C(=O)N(C)[C@@H](Cc2ccccc2)C(=O)O)C(C)C)C1=O)C(C)C` [peptide 27, HCC(CH2)4CO-Val(Me)-Agl(Me)-Val-Ala(Me)-Phe(Me)-OH], the CC50 at 24 h in series [1] (setting [8]) was 295 µM. The EC50 in series [2] is more than 300 µM; in series [3] (setting [6]), 284 µM; in series [4], more than 300 µM; in series [5], 296 µM. In series [3], the “Selectivity Index” value was found to be 1.0.

`C#CCCCCC(=O)N[C@H](C(=O)N[C@H](C(=O)N[C@H](C(=O)N[C@@H](C)C(=O)N[C@@H](Cc1ccccc1)C(=O)O)C(C)C)C(C)C)C(C)C` [peptide 15, HCC(CH2)4CO-Val-Val-Val-Ala-Phe-OH] (Hept6ynoyl-VVVAF-OH) returned a CC50 at 24 h in series [1] of 316 µM. Further, the EC50 in series [2] was 46.4 µM; in series [3] (setting [7]), 44.7 µM; in series [4] it was 50.8 µM; in series [5] it was 60.3 µM. Also, the “Selectivity Index” value in series [3] is on record as 7.0.

`C#CCCCCC(=O)N(C)[C@H]1CCN([C@H](C(=O)N(C)[C@H](C(=O)N(C)[C@@H](C)C(=O)N(C)[C@@H](Cc2ccccc2)C(=O)O)C(C)C)C(C)C)C1=O` [peptide 26, HCC(CH2)4CO-Agl(Me)-Val-Val(Me)-Ala-Phe(Me)-OH] yielded a CC50 at 24 h in series [1] of 316 µM. The EC50 in series [2] was found to be 252 µM; in series [3] (setting [7]), 217 µM; in series [4], 224 µM; in series [5], 220 µM. For the same molecule, the “Selectivity Index” value in series [3] came out at 1.46.

In the case of `C#CCCCCC(=O)N(C)[C@H](C(=O)N(C)[C@H](C(=O)N(C)[C@H]1CCN([C@@H](C)C(=O)N(C)[C@@H](Cc2ccccc2)C(=O)NCCCCCCN)C1=O)C(C)C)C(C)C` [peptide 35, HCC(CH2)4CO-Val(Me)-Val(Me)-Agl(Me)-Ala-Phe(Me)-NH(CH2)6NH2], the midpoint of cytotoxicity in series [1], the CC50 at 24 h, lay at 371 µM. Further, the “fold more active than nonmethylated counterpart” value in series [2] (AmB1000.1, 17 vs 16, 35 vs 31) turned out to be 1.4 fold; in series [4] (MF200.5, 35 vs 31), 1.5 fold. The half-maximal effective concentration (EC50) was 92 µM in series [2], 78.6 µM in series [3] (setting [7]), 85.3 µM in series [4] and 81.5 µM in series [5]. In series [3], the “Selectivity Index” value is recorded as 4.7.

With `C#CCCCCC(=O)N[C@H](C(=O)N[C@H](C(=O)N[C@H](C(=O)N[C@@H](C)C(=O)N[C@@H](Cc1ccccc1)C(=O)NCCCCCCN)C(C)C)C(C)C)C(C)C` [peptide 16, HCC(CH2)4CO-Val-Val-Val-Ala-Phe-NH(CH2)6NH2] (Hept6ynoyl-VVVAF-{NH(CH2)6NH2}), the CC50 at 24 h in series [1] was 446 µM. In addition, the EC50 in series [2] is 20.8 µM; in series [3] (setting [7]) it was 23.4 µM; in series [4], 18.1 µM; in series [5], 30.3 µM. Moreover, in series [3], the “Selectivity Index” value is 19.2 and 19.0.

`C#CCCCCC(=O)N[C@H]1CCN([C@H](C(=O)N[C@H](C(=O)N[C@@H](C)C(=O)N[C@@H](Cc2ccccc2)C(=O)NCCCCCCN)C(C)C)C(C)C)C1=O` [peptide 29, HCC(CH2)4CO-Agl-Val-Val-Ala-Phe-NH(CH2)6NH2]: in series [1], the CC50 at 24 h was 416 µM. For the same molecule, the EC50 in series [2] turned out to be 72 µM; in series [3] (setting [7]), 75 µM; in series [4], 67.9 µM; in series [5], 90.4 µM. Further, in series [3], the “Selectivity Index” value is reported as 5.5.

Values taken from publication PMC8231256, “Influence of N-Methylation and Conformation on Almiramide Anti-Leishmanial Activity” (Molecules, 2021).
